System: 186277-243-T-J2-PDC complex spheroid viability
Assay: Anticancer human tumor 186277-243-T-J2-PDC patient-derived colon adenocarcinoma cell line growth inhibition [GQUAD]
Conditions: for IC50: curve of first compound; for viability, T/C: stronger effect = lower value
In short: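 Viability of tumor cells grown as complex spheroids with endothelial and stromal cells, exposed to drug combinations. Top concentration at or near clinical Cmax (else 10 microM), diluted in half-log increments.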

[1] = second compound 0.0316 µM, first compound 0.0316 µM
[2] = second compound 0.0316 µM, first compound 0.1 µM
[3] = second compound 0.0316 µM, first compound 0.316 µM
[4] = second compound 0.0316 µM, first compound 1 µM
[5] = second compound 0.0316 µM, first compound 3.16 µM
[6] = second compound 0.0316 µM, first compound 10 µM
[7] = second compound 0.1 µM, first compound 0.0316 µM
[8] = second compound 0.1 µM, first compound 0.1 µM
[9] = second compound 0.1 µM, first compound 0.316 µM
[10] = second compound 0.1 µM, first compound 1 µM
[11] = second compound 0.1 µM, first compound 3.16 µM
[12] = second compound 0.1 µM, first compound 10 µM
[13] = second compound 0.316 µM, first compound 0.0316 µM
[14] = second compound 0.316 µM, first compound 0.1 µM
[15] = second compound 0.316 µM, first compound 0.316 µM
[16] = second compound 0.316 µM, first compound 1 µM
[17] = second compound 0.316 µM, first compound 3.16 µM
[18] = second compound 0.316 µM, first compound 10 µM
[19] = second compound 1 µM, first compound 0.0316 µM
[20] = second compound 1 µM, first compound 0.1 µM
[21] = second compound 1 µM, first compound 0.316 µM
[22] = second compound 1 µM, first compound 1 µM
[23] = second compound 1 µM, first compound 3.16 µM
[24] = second compound 1 µM, first compound 10 µM
[25] = second compound 3.16 µM, first compound 0.0316 µM
[26] = second compound 3.16 µM, first compound 0.1 µM
[27] = second compound 3.16 µM, first compound 0.316 µM
[28] = second compound 3.16 µM, first compound 1 µM
[29] = second compound 3.16 µM, first compound 3.16 µM
[30] = second compound 3.16 µM, first compound 10 µM
[31] = second compound 10 µM, first compound 0.0316 µM
[32] = second compound 10 µM, first compound 0.1 µM
[33] = second compound 10 µM, first compound 0.316 µM
[34] = second compound 10 µM, first compound 1 µM
[35] = second compound 10 µM, first compound 3.16 µM
[36] = second compound 10 µM, first compound 10 µM
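For viability, T/C in this document: 100% = DMSO vehicle control viability.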

Molecule `CC1COCCN1c1cc(C2(O)CC3CCC(C2)O3)c2cnn(-c3ccn[nH]3)c2n1` (stereo unspecified) + Cc1cnc(CNC(=O)c2c(=O)c3ccc(N4CCCN(C)CC4)nc3n3c2sc2ccccc23)cn1 has an IC50 (second compound 0.0316 µM) of under 31.6 nM, an IC50 (second compound 0.1 µM) of under 31.6 nM and an IC50 (second compound 0.316 µM) of under 31.6 nM. For the same molecule, the IC50 (second compound 1 µM) was under 31.6 nM, the IC50 (second compound 3.16 µM) was under 31.6 nM and the IC50 (second compound 10 µM) was under 31.6 nM. For the same molecule, the viability, T/C [1] was 31.3%, the viability, T/C [2] was 13.1% and the viability, T/C [3] was 5.91%. It also gave a viability, T/C [4] of 3.51%, a viability, T/C [5] of 5.56% and a viability, T/C [6] of 3.63%. The viability, T/C [7] was 38.7%, the viability, T/C [8] was 16.4% and the viability, T/C [9] was 8.6%. For the same molecule, the viability, T/C [10] was 4.53%, the viability, T/C [11] was 4.78% and the viability, T/C [12] was 2.97%. It also gave a viability, T/C [13] of 37.7%, a viability, T/C [14] of 20.9% and a viability, T/C [15] of 13.4%. The viability, T/C [16] was 6.49%, the viability, T/C [17] was 4.71% and the viability, T/C [18] was 2.1%. The viability, T/C [19] was 29.5%, the viability, T/C [20] was 31.5% and the viability, T/C [21] was 16.4%. For the same molecule, the viability, T/C [22] was 8.79%, the viability, T/C [23] was 5.94% and the viability, T/C [24] was 0.5%. It also gave a viability, T/C [25] of 36.2%, a viability, T/C [26] of 31% and a viability, T/C [27] of 19.5%. It also gave a viability, T/C [28] of 10.8%, a viability, T/C [29] of 5.54% and a viability, T/C [30] of 0.33%. The viability, T/C [31] was 34.9%, the viability, T/C [32] was 28.4% and the viability, T/C [33] was 23.2%. The viability, T/C [34] was 10.9%, the viability, T/C [35] was 6.86% and the viability, T/C [36] was 0.13%.
With `Cn1ncnc1[C@H]1c2n[nH]c(=O)c3cc(F)cc(c23)N[C@@H]1c1ccc(F)cc1` + Cc1cnc(CNC(=O)c2c(=O)c3ccc(N4CCCN(C)CC4)nc3n3c2sc2ccccc23)cn1 the IC50 (second compound 0.0316 µM) was over 316 nM, the IC50 (second compound 0.1 µM) was over 316 nM and the IC50 (second compound 0.316 µM) was over 316 nM. For the same molecule, the IC50 (second compound 1 µM) was over 316 nM, the IC50 (second compound 3.16 µM) was over 316 nM and the IC50 (second compound 10 µM) was under 0.999 nM. The viability, T/C (second compound 0.0316 µM, first compound 0.000999 µM) was 107%, the viability, T/C (second compound 0.0316 µM, first compound 0.00316 µM) was 101% and the viability, T/C (second compound 0.0316 µM, first compound 0.00999 µM) was 108%. It also gave a viability, T/C [1] of 78.6%, a viability, T/C (second compound 0.0316 µM, first compound 0.0999 µM) of 85.2% and a viability, T/C [3] of 78.2%. The viability, T/C (second compound 0.1 µM, first compound 0.000999 µM) was 102%, the viability, T/C (second compound 0.1 µM, first compound 0.00316 µM) was 103% and the viability, T/C (second compound 0.1 µM, first compound 0.00999 µM) was 84.3%. For the same molecule, the viability, T/C [7] was 94.8%, the viability, T/C (second compound 0.1 µM, first compound 0.0999 µM) was 85.5% and the viability, T/C [9] was 71.6%. It also gave a viability, T/C (second compound 0.316 µM, first compound 0.000999 µM) of 75.7%, a viability, T/C (second compound 0.316 µM, first compound 0.00316 µM) of 79.2% and a viability, T/C (second compound 0.316 µM, first compound 0.00999 µM) of 80.1%. The viability, T/C [13] was 77%, the viability, T/C (second compound 0.316 µM, first compound 0.0999 µM) was 73.1% and the viability, T/C [15] was 70.3%. The viability, T/C (second compound 1 µM, first compound 0.000999 µM) was 65.6%, the viability, T/C (second compound 1 µM, first compound 0.00316 µM) was 57.3% and the viability, T/C (second compound 1 µM, first compound 0.00999 µM) was 59.2%. It also gave a viability, T/C [19] of 59.4%, a viability, T/C (second compound 1 µM, first compound 0.0999 µM) of 62.5% and a viability, T/C [21] of 52.8%. It also gave a viability, T/C (second compound 3.16 µM, first compound 0.000999 µM) of 48.1%, a viability, T/C (second compound 3.16 µM, first compound 0.00316 µM) of 55.6% and a viability, T/C (second compound 3.16 µM, first compound 0.00999 µM) of 52.5%. For the same molecule, the viability, T/C [25] was 51.4%, the viability, T/C (second compound 3.16 µM, first compound 0.0999 µM) was 54% and the viability, T/C [27] was 48.7%. For the same molecule, the viability, T/C (second compound 10 µM, first compound 0.000999 µM) was 46%, the viability, T/C (second compound 10 µM, first compound 0.00316 µM) was 42.1% and the viability, T/C (second compound 10 µM, first compound 0.00999 µM) was 43.4%. For the same molecule, the viability, T/C [31] was 46.9%, the viability, T/C (second compound 10 µM, first compound 0.0999 µM) was 55.7% and the viability, T/C [33] was 42.5%.
For `O=C(c1cc(Cc2n[nH]c(=O)c3ccccc23)ccc1F)N1CCN(C(=O)C2CC2)CC1` + Cc1cnc(CNC(=O)c2c(=O)c3ccc(N4CCCN(C)CC4)nc3n3c2sc2ccccc23)cn1, the IC50 (second compound 0.0316 µM) was over 10000 nM, the IC50 (second compound 0.1 µM) was 5010 nM and the IC50 (second compound 0.316 µM) was over 10000 nM. The IC50 (second compound 1 µM) was under 31.6 nM, the IC50 (second compound 3.16 µM) was under 31.6 nM and the IC50 (second compound 10 µM) was under 31.6 nM. It also gave a viability, T/C [1] of 99.9%, a viability, T/C [2] of 78.8% and a viability, T/C [3] of 83.2%. The viability, T/C [4] was 83.6%, the viability, T/C [5] was 60.9% and the viability, T/C [6] was 53%. The viability, T/C [7] was 80.7%, the viability, T/C [8] was 62.8% and the viability, T/C [9] was 62.7%. It also gave a viability, T/C [10] of 60.7%, a viability, T/C [11] of 53% and a viability, T/C [12] of 45.9%. For the same molecule, the viability, T/C [13] was 64.6%, the viability, T/C [14] was 56.8% and the viability, T/C [15] was 64.6%. For the same molecule, the viability, T/C [16] was 62.9%, the viability, T/C [17] was 50.8% and the viability, T/C [18] was 48.4%. It also gave a viability, T/C [19] of 46.3%, a viability, T/C [20] of 48.4% and a viability, T/C [21] of 43.5%. For the same molecule, the viability, T/C [22] was 47.9%, the viability, T/C [23] was 50% and the viability, T/C [24] was 49%. It also gave a viability, T/C [25] of 44.2%, a viability, T/C [26] of 39.2% and a viability, T/C [27] of 38.3%. The viability, T/C [28] was 38.2%, the viability, T/C [29] was 43.5% and the viability, T/C [30] was 38.9%. It also gave a viability, T/C [31] of 33.1%, a viability, T/C [32] of 42.3% and a viability, T/C [33] of 34.7%. The viability, T/C [34] was 43.8%, the viability, T/C [35] was 49.5% and the viability, T/C [36] was 38.9%.

— PubChem BioAssay AID2060512 (Molecular Pharmacology Branch, DTP, NCI, 2025)
